Test results taken from patent publication US6303366A, “Biodegradation of the gasoline oxygenates” (Envirogen, Inc., priority 1999, dated 2001).

Columns and labels:
M. vaccae JOB5 = assay: Gas chromatography degradation assay, washed cells; type: cell-based, Mycobacterium vaccae; details: for % Degraded: 30 mg/l, 24 hours, OD550 1.0
Procedure: (§1) Propane-oxidizing microorganisms were grown as described above on either propane, isopropanol, ethanol or acetone, to a cell density of OD550≥0.5. The cells were then collected by centrifugation, washed with BSM, and suspended to an OD550 of 1.0. […] The vials were sealed with Teflon-lined septa and crimp seals and incubated with shaking (250 rpm) at 30° C. for at least 24 hr. Control samples were prepared by adding 50 μl of 10 mM HgCl2 to replicate vials. HgCl2 killed the microorganisms present in the vials allowing these vials to serve as controls. At pre-determined time points, 50 μl of 10 mM HgCl2 were added to the incubating sample to stop the reaction or a sub-sample of the incubating sample was removed for analysis. Degradation of MTBE, ETBE or tert-butyl alcohol (TBA) was measured by gas chromatography.
(§2) Gas chromatography was performed by first removing cells from the samples by centrifugation of the sample vial or the sub-sample. A pre-sealed 2-ml autosampler vial was partially evacuated by inserting a syringe needle through the septa and removing 500 μl of air. Five hundred μl of the clear supernatant fraction of the cell culture were then injected into the vial. The samples were then analyzed by injecting 1 μl of the sample directly into a Varians Model 3400 gas chromatograph equipped with a 30 m Vocol capillary column (Supelco) and a flame ionization detector. The column, injector, and detector were maintained isocratically at 80° C., 200° C., and 225° C., respectively. Standard curves of each compound were generated with aqueous standards of 10 ppm, 25 ppm, 50 ppm, and 100 ppm.

ENV420 = assay: Gas chromatography degradation assay, washed cells; type: cell-based; details: 30 mg/l, 24 hours, OD550 1.0
Procedure: as §1, §2

strain ENV425 = assay: Laboratory-scale membrane bioreactor degradation of MTBE; set-up: species or system Nocardia
Procedure: The BSM feed rate was 1.7 ml/min. to create a hydraulic residence time in the reactor of 2.5 days. The effluent of the reactor passed over the surface of a 100,000 mwt ultra filtration membrane (Model CR250; Raisio Flootek, Molmo, Sweden), at a flow rate of 1.2 to 2.2 ml/min at a pressure of from 1 to 1.5 psi. The retenate containing cells were passed back into the reactor, and the filtrate was discarded as the treated effluent. The reactor was operated at 30° C. at a pH of 7. […] Oxygen concentration within the reactor was monitored by using an Ingold […] and a Cole Palmer model 01971-00 oxygen monitor, and oxygen concentration was maintained at >1% air saturation by adding air or oxygen directly to the reactor.

ENV425 = assay: Field-scale membrane bioreactor treating MTBE-contaminated groundwater; set-up: species or system Nocardia; details: for % Removed: continuous operation
From the text: Propane oxidizing bacteria were deployed in a field-scale membrane bioreactor (MBR) system to treat MTBE-contaminated groundwater at an oil refinery. An MBR is a type of suspended growth reactor.
The MBR system used in the present example consisted of a 1000-gallon tank equipped with a variable speed mixer, an air diffuser capable of providing up to 600 ft^3 of air per hour, an automated pH controller, and nutrient and caustic feed systems. Soda ash was used to control pH, and a soluble fertilizer, in this case fish oil emulsion, was used as a nutrient. (Other types of soluble agricultural fertilizer can be used to supply nutrients.) The weight ratio of the nutrient comprised approximately 100 parts carbon:10 parts nitrogen:1 part phosphate. The fertilizer was added continuously to the influent contaminant stream by using a LMI model A771-152S chemical metering pump. The liquid level in the reactor was controlled by using two Dwyer model 603-A level transmitters set to maintain a reactor liquid volume of from 700 to 900 gallons.
The pH was monitored and controlled by using a Rosemount model 1055APH pH analyzer/controller and a Rosemount model 385-2-8-54 pH sensor that measured pH in the reactor. Caustic was added to the influent feed line by using an LMI model A771-152S chemical metering pump. Effluent from the reactor was passed over dual ultrafiltration membranes (Rhone Poulenc model SC37/KO9; 17.22 ft^2 of membrane surface) connected in series, then into a proof tank and then a holding tank prior to discharge into the plant's sewer system.
Operation of the reactor system was initiated by adding 225 gallons of water to the reactor and then adding concentrated BSM solution (see above) to the reactor to create a liquid concentration of 1×BSM. Twenty liters of frozen propane-grown ENV425 that had been grown in a laboratory fermentor in BSM medium with propane as a sole source of carbon and energy was frozen prior to shipment, then thawed and added directly to the water in the reactor. […] After addition to the reactor, the ENV425 was mixed well until dispersed. Then, 1.1 L of isopropanol were added while the reactor was mixing. The reactor was operated for 1.5 days until the culture became turbid. The reactor volume was then increased to 800 gallons, additional BSM was added to a final concentration of 1×BSM and an additional 3.8 L of isopropanol were added.
This initial operation was termed the "batch phase" and was used to ensure equilibration of the reactor prior to initiating continuous feed operation.
Reactor effluent was passed over the ultrafiltration membranes and retenate, containing the propane-oxidizing bacteria, was returned to the reactor. Filtrate was passed to the proof tank, and a portion of the filtrate was pumped back into the reactor to maintain an appropriate liquid volume. This was done because the flux through the membrane (40 gal./day/ft^2 of membrane) was greater than the feed rate to the reactor. Some of the return liquid passed through a spray nozzle at the top of the reactor to control reactor foaming. […] Additionally, periodic samples of the reactor headspace were sampled to estimate MTBE stripping in the reactor.
Isopropanol was used to rapidly increase biomass in the reactor and to maintain high levels of activity by the propane-oxidizing bacteria.

[1] = tested on: anaerobic sediment samples; details: the one active sample; more than 152 days of incubation; cited from earlier work
Acetobacterium woodii = details: anaerobic; cited from earlier work
Eubacterium limosum = details: anaerobic; cited from earlier work

COC(C)(C)C [MTBE, methyl-tert-butyl ether]
% Degraded (M. vaccae JOB5; grown on isopropanol): 93% | % Degraded (M. vaccae JOB5; grown on propane): 100% | degraded % of the added MTBE (M. vaccae JOB5; propane-grown, 518 μM (46 ppm) MTBE, within 24 hr): 100% | % Degraded (ENV420; grown on ethanol): 86% | % Degraded (ENV420; grown on propane): 50% | MTBE added to the reactor removed (strain ENV425; 2.5 day hydraulic retention time): Greater than 95% | MTBE stripping from the reactor, of the influent MTBE mass (strain ENV425; typically): < 5% | MTBE Loss % (volatilization) (ENV425; 3/7): 9.6% | MTBE Loss % (volatilization) (ENV425; 3/25): 0.9% | MTBE Loss % (volatilization) (ENV425; 4/1): 6.8% | MTBE Loss % (volatilization) (ENV425; 4/8): 4.6% | MTBE Loss % (volatilization) (ENV425; 4/15): 2.1% | MTBE Loss % (volatilization) (ENV425; Averages): 4.5% | % Removed (ENV425; 1/29, T-101 MTBE 100 mg/l): 96.4% | % Removed (ENV425; 2/2, T-101 MTBE 250 mg/l): 97.9% | % Removed (ENV425; 2/12, T-101 MTBE 240 mg/l): 91.7% | % Removed (ENV425; 2/16, T-101 MTBE 200 mg/l): 95.3% | % Removed (ENV425; 2/19, T-101 MTBE 280 mg/l): 96.1% | % Removed (ENV425; 2/26, T-101 MTBE 410 mg/l): 99.6% | % Removed (ENV425; 3/1, T-101 MTBE 780 mg/l): 96.9% | % Removed (ENV425; 3/4, T-101 MTBE 680 mg/l): 96.5% | % Removed (ENV425; 3/7, T-101 MTBE 770 mg/l): 96.1% | % Removed (ENV425; 3/11, T-101 MTBE 2000 mg/l): 97.0% | % Removed (ENV425; 3/14, T-101 MTBE 1100 mg/l): 92.0% | % Removed (ENV425; 3/18, T-101 MTBE 1900 mg/l): 99.5% | % Removed (ENV425; 3/21, T-101 MTBE 1600 mg/l): 92.5% | % Removed (ENV425; 3/25, T-101 MTBE 1590 mg/l): 97.0% | % Removed (ENV425; 3/28, T-101 MTBE 2000 mg/l): 95.4% | % Removed (ENV425; 4/1, T-101 MTBE 2200 mg/l): 96.8% | % Removed (ENV425; 4/4, T-101 MTBE 2400 mg/l): 98.0% | % Removed (ENV425; 4/8, T-101 MTBE 1700 mg/l): 94.6% | % Removed (ENV425; Avg., T-101 MTBE 1083 mg/l): 96.2% | Loss of MTBE caused by stripping/volatilization, averaged (ENV425; during the demonstration): 4.5% | influent MTBE degraded (ENV425; field and laboratory testing, hydraulic retention time 2.5 to 3.3 days): > 90% | MTBE removal (ENV425; throughout the demonstration, MTBE 40 mg/L to >2000 mg/L): Greater than 90% | transformation of MTBE [1]: about 50% | degradation by resting cells (Acetobacterium woodii): not degraded | degradation by resting cells (Eubacterium limosum): not degraded
